This is an account of results in patent US20250288568A1, “NEW CRYSTAL FORM OF A PDE4 INHIBITOR” (CHIESI FARMACEUTICI S.P.A., priority 2022, published 2025).

Data set [1] in a line: Lung PK after intratracheal administration to Sprague-Dawley rats (PreciseInhale system). Type of data set: in vivo. The following applies: rat, inhaled or intranasal, male Sprague-Dawley rats, 10 μg/lung deposited dose. As for the experimental part:
Crystal Form 2 of the compound of formula (I) was intratracheally administered to Sprague-Dawley rats using the PreciseInhale system at the dose of 10 μg/lung deposited dose. Powder aerosols was generated using 40 bar generating pressure. A total number of 24 Sprague-Dawley male rats was used for PK investigation; 8 time points for each study, n=3 rats/time point. Before administration, rats were anesthetized with sevoflurane and endotracheally intubated using appropriate steel catheters. Aerosol administration was performed connecting the catheter to the PreciseInhale system, previously set to deliver 10 μg/lung deposited dose to each animal.
Lung t1/2 is the terminal half-life, calculated by the formula ln(2)/λz, where λz is the first-order rate constant associated with the terminal (log-linear) portion of the curve. Estimated by linear regression of time vs. log concentration; i.e. the time it takes for the concentration of the drug in the lung to be reduced by 50%.
Lung MRTlast is the mean residence time from the time of dosing to the time of the last measurable concentration; i.e. the average time a molecule stays in the lung.

Data set [2] can be described thus: Solubility in Simulated Lung Fluid (SLF), saturation shake-flask method. As to conditions: for solubility at 0.5 h / solubility at 1 h / solubility at 3 h: simulated lung fluid (SLF), aqueous with cosolvent or surfactant or cyclodextrin, thermodynamic from solid, SLF with 0.02% v/v Tween 80, pH 6.5, 37° C. Type of data set: physicochemical. The method, then:
A study of solubility in SLF for the characterization of the crystal Form 2 and crystal Form A of the compound of formula (I), was performed. The use of SLF, that mimics the physiologically lung fluid, can give a good understanding of the dissolution mechanism and possible in vivo behavior of a product, enhancing the predictive capability of the dissolution testing in terms of bioavailability and therapeutic effectiveness.
The experimental method used is based on saturation shake-flask method. The samples were prepared by adding, respectively, an excess of the crystal Form 2 of the compound of formula (I) and an excess of the crystal Form A of the compound of formula (I), to the solubility medium SLF. The solubility concentration value is the thermodynamic equilibrium concentration, determined by assaying the solute concentration of the filtrate from a saturated solution, using an analytical method by UPLC-MS (MRM quantification; calibration: from 0.01 to 10 μg/ml; every batch have been tested in duplicate and samples have been filtered and diluted 1/10 in duplicate).
The SLF used for the tests were prepared analogously to literature (Simulated Biological Fluids with Possible Application in Dissolution Testing, Dissolution Technologies, 2011, dx.doi.org/10.14227/DT180311P15, table 11, page 2215). To mimic better the lung fluid, a surfactant, particularly Tween 80, has been added (0.02% v/v).
The solubility profile of the crystal Form 2 and the crystal Form A of the compound of formula (I) was determined in SLF adjusted with acetic acid (1M) to pH of 6.5, in order to simulate an inflammation condition in the lung. The experiment was conducted at 37° C.
The following experimental conditions were applied for the SLF dissolution profile study respectively for the crystal Form 2 and the crystal Form A of the compound of formula (I). About 2.5 mg of the crystal Form 2 or the crystal Form A of the compound of formula (I) was dispersed in 2.5 ml of SLF with stirring system. The concentration of material in solution was determined after 0.5, 1 and 3 hours. In each time interval, the vessel stirring was stopped, and 180-250 μl of each samples have been collected and filtered by RC Membrane Syringe Filters 0.45 μm and injected in UPLC apparatus.

A word on the solubility: it is how much of the substance goes into solution per volume.

Values after ≈ are worked out from the molar mass of the structure shown.

`CS(=O)(=O)Nc1ccc(C(=O)O[C@@H](Cc2c(Cl)c[n+]([O-])cc2Cl)c2ccc(OC(F)F)c(OCC3CC3)c2)cc1OCC1CC1` (single isomer, unassigned) [Crystal Form 2]: in data set [1] (mean residence time to last measurable concentration, read-out: Lung MRTlast), the MRT last came out at 9.4 h. In data set [1] (terminal half-life in lung, read-out: Lung t1/2 (converted)), the half-life was 7.7 h. Besides, in data set [2] (crystal Form 2 vs crystal Form A, SLF, at 0.5, 1 and 3 hours), the “Higher solubility in SLF with respect to the crystal Form A” value was “at least 4.5 fold”. In data set [2], this compound gave a solubility at 0.5 h of 0.74 µg/mL (≈ 1.08 µM), a solubility at 1 h of 0.89 µg/mL (≈ 1.29 µM) and a solubility at 3 h of 0.88 µg/mL (≈ 1.28 µM).

On to `CS(=O)(=O)Nc1ccc(C(=O)O[C@@H](Cc2c(Cl)c[n+]([O-])cc2Cl)c2ccc(OC(F)F)c(OCC3CC3)c2)cc1OCC1CC1` [Crystal Form A, 3,5-dichloro-4-[(2S)-2-[3-(cyclopropylmethoxy)-4-(difluoromethoxy)phenyl]-2-{[3-(cyclopropylmethoxy)-4-(methanesulfonamido)benzoyl]oxy}ethyl]pyridine1-oxide, reference compound], for which, in data set [2], the solubility at 0.5 h was 0.16 µg/mL (≈ 0.233 µM), the solubility at 1 h is 0.18 µg/mL (≈ 0.262 µM) and the solubility at 3 h is 0.2 µg/mL (≈ 0.291 µM).
